Here are results for 13 compounds from PMC11215307, “Targeting dermatophyte Cdc42 and Rac GTPase signaling to hinder hyphal elongation and virulence” (iScience, 2024).

In assay [1] the test system is T. rubrum conidial germination. The assay can be described thus: T. rubrum conidia germination assay. It counts as cell-based, Trichophyton rubrum. As to conditions: for Effect on conidial germination in T. rubrum: in cellulo screen of small GTPase inhibitors; for IC50: overnight incubation at 28°C in Sabouraud medium, calcofluor white staining. As to the method: Fungal conidia (2 × 10^6) were subjected to an overnight incubation at 28°C in Sabouraud medium, supplemented with 1% DMSO (control) or the Rac and/or Cdc42 inhibitors; 10, 32, and 100 μM EHop-016; 100, 320, and 1000 μM AZA1; 10, 32, and 100 μM EHT1864; 10, 100, and 1000 μM CASIN; 200, 500, and 1000 μM NSC23766; 20, 200, and 2000 μM ketorolac; 100 μM MBQ-167; 1 and 10 μM ML-141; 1000 μM ZCL278; and 50 μM ITX3. Following the incubation, the fungal conidia were washed twice with saline and then stained with 0.2 mM calcofluor white. The germinated and ungerminated conidia were subsequently observed and counted under a fluorescent microscope (Olympus BX53).

Assay [2] has as its system T. rubrum mycelial growth. Nature of the assay: Mycelial growth inhibition on modified 1/10 Sabouraud glucose agar. It counts as cell-based, Trichophyton rubrum. The settings on record: in cellulo screen of small GTPase inhibitors. The method, then:
Trichophyton rubrum CBS118892, Escherichia coli BL21, and Agrobacterium tumefaciens EHA105 were used.[74]^,[78]^,[79] E. coli BL21 was cultured in LB medium with appropriate antibiotics at 37°C. A. tumefaciens was cultured in LB or Agrobacterium induction medium supplemented with 0.2 mM acetosyringone at 28°C.[73] T. rubrum was cultured at 28°C. Conidia of T. rubrum were prepared using a previously described method.[80] Sabouraud agar or RPMI with MOPS agar was used for hyphal formation. To evaluate mycelial growth inhibition by inhibitors, a modified 1/10 Sabouraud glucose agar (containing 0.2% bacto peptone, 0.1% glucose, 0.1% KH2PO4, 0.1% MgSO4 7H2O, 1.5% bacto agar, pH unadjusted) was used.

In assay [3] the test system is TrCdc42. Nature of the assay: Guanine nucleotide exchange assay of TrCdc42-His promoted by TrCdc24 DH-PH (bodipy-FL GTP fluorescence). It counts as biochemical, Trichophyton rubrum. The settings on record: for IC50: guanine nucleotide exchange of TrCdc42 by TrCdc24, fluorescence at 60 min; for Selectivity between fungal Cdc42 and Rac: comparison of TrCdc42 and TrRac IC50 (Table 1). The method, then:
(§1) One μM of TrRac or TrCdc42-His was mixed with 0.1 μM bodipy-FL GTP (Thermo Fisher, Waltham, MA, USA) in Buffer A and allowed to equilibrate for 3 min at 20°C–25°C. Ammonium sulfate, EDTA, or recombinant TrCdc24 DH-PH proteins were incubated with the compounds or vehicles alone (final DMSO concentration: 1%) at the indicated concentrations in the reaction buffer for 20 min at room temperature. The reaction was initiated by combining TrRac or TrCdc42/bodipy-FL GTP (100 μL) with Cdc24DH-PH (50 μL) at room temperature. The change in bodipy-FL-GTP fluorescence (excitation: 485 nm, emission: 535 nm) was monitored for 60 min using a Berthold tristar2 LB942.
(§2) Statistical analyses were conducted using Microsoft Excel and Prism 10, GraphPad. All experiments were performed more than three times. Statistical significance was determined using Student’s t test, one-way analysis of variance, and Tukey–Kramer test. IC50 values were ascertained by plotting the fluorescent intensity (% of control) at 60 min using a specific formula: IC50=x2−(x2/x1)^(50−y2/y2−y1)

The test system of assay [4] is TrRac. The assay can be described thus: Guanine nucleotide exchange assay of TrRac promoted by TrCdc24 DH-PH (bodipy-FL GTP fluorescence). It is filed as biochemical, Trichophyton rubrum. As to conditions: fluorescence at 60 min. The method, then: as §1, §2
In assay [5] the test system is T. rubrum. Nature of the assay: Invertebrate (silkworm) infection model of dermatophytosis. As to conditions: conidia (5 × 10^6) injected into silkworm hemolymph. It counts as in vivo, Bombyx mori. As to the method: Eggs from silkworms were procured from Ehime-Sansh Co., Ltd. (Japan) and reared following a method described previously.[86]^,[87] Fifth instar silkworm larvae were nourished with an artificial diet (Silkmate 2S; Ehime-Sanshu Co., Ltd., Japan) overnight.[88]^,[89] Dermatophyte infection was conducted in accordance with a previously outlined procedure.[53] Conidia (5 × 10^6) of T. rubrum were injected into the silkworm hemolymph.

Assay [6] relates to T. rubrum growth on human nail fragments. The assay can be described thus: In vitro nail infection assay. It counts as cell-based, Trichophyton rubrum. The settings on record: 2.6% (60 mM) EHop-016, four applications every 24 h, observed after 36 days at 28°C, versus vehicle. As to the method:
The conidial suspension (1 × 10^4/10 μL/nail fragment) of T. rubrum was administered to autoclaved nail fragments obtained from an adult volunteer (ethics approval, No. R3-6, Musashino University, Japan) and incubated at 28°C. After 24 h, either the vehicle (30% DMSO/5% Tween 80) or 60 mM EHop-016 was applied to the nail fragment. A total of four applications were administered every 24 h. The nails were examined after 36 days of incubation.

Entries after “also recorded” stand apart in the source; their conditions may differ.

For orientation: IC50 means the concentration needed to halve the response being measured.

On to Rhosin, for which, in assay [1], the “Effect on conidial germination in T. rubrum” value (“Effect on conidial germination” for short) is listed as “did not”. Also, in assay [2], the “Effect on mycelial growth in T. rubrum” value is “did not”.

For `COc1ccc(C2CC(c3ccccc3)=NN2c2ccc(S(N)(=O)=O)cc2)cc1` (centres unmarked) [ML-141], the figures for the IC50 in assay [3], in assay [4] and in assay [1] were more than 1000 µM, more than 1000 µM and 1.7 µM, respectively.

Turning to `Cc1cc2cc(Nc3ccnc(Nc4ccc5[nH]c(C)cc5c4)n3)ccc2[nH]1` [AZA1], the IC50 in assay [3] was 147 µM; in assay [4], 127 µM; in assay [1] (Trichophyton rubrum), 127 µM. Moreover, the “Effect on conidial germination” value in assay [1] was “hindered”. In addition, the “Effect on mycelial growth in T. rubrum” value in assay [2] is reported as “hindered”.

Turning to `O=c1cc(CN2CCOCC2)occ1OCCCCCSc1ccnc2cc(C(F)(F)F)ccc12` [EHT1864], the “Selectivity between fungal Cdc42 and Rac” value in assay [3] is “higher selectivity for Cdc42 than for Rac”. Also, the IC50 in assay [3] was 154 µM; in assay [4], more than 1000 µM; in assay [1] (Trichophyton rubrum), 16 µM. Also, in assay [1], the “Effect on conidial germination” value was “hindered”. In addition, the “Effect on mycelial growth in T. rubrum” value in assay [2] is recorded as “hindered”.

For `Cc1cc(C)nc(NS(=O)(=O)c2ccc(NC(=S)NC(=O)COc3ccc(Br)cc3Cl)cc2)n1` [ZCL278], the concentration for half-maximal inhibition (IC50) in assay [3], in assay [4] and in assay [1] was more than 1000 µM each time.

In the case of `CCn1c2ccccc2c2cc(Nc3ccnc(NCCCN4CCOCC4)n3)ccc21` [EHop-016], in assay [3], the “Selectivity between fungal Cdc42 and Rac” value is reported as “higher selectivity for Cdc42 than for Rac”. For the same compound, the values for the IC50 in assay [3], in assay [4] and in assay [1] (Trichophyton rubrum) were 40 µM, 137 µM and 45 µM, respectively. Also, in assay [5], the “Survival of silkworms infected with T. rubrum” value is “significantly extended the survival”. Also, in assay [6], the “T. rubrum growth on human nails” value is listed as “no fungal lawn was observed; also recorded: lesser T. rubrum growth on the nails”.

Turning to `O=C(c1ccccc1)c1ccc2n1CCC2C(=O)O` (centres unmarked) [Ketorolac], the IC50 in assay [3] is 889 µM; in assay [4], 1420 µM; in assay [1] (Trichophyton rubrum) it was 363 µM.

Consider `CCn1c2ccccc2c2cc(-n3nncc3-c3ccccc3)ccc21` [MBQ-167], for which the IC50 in assay [3], in assay [4] and in assay [1] (Trichophyton rubrum) was more than 100 µM throughout. In addition, the “Inhibitory activity in conidial germination inhibition assay” value in assay [1] (at 100 μM) was “did not show any inhibitory activity”.

Consider `C[C@H]1CCC/C=C/[C@@H]2C[C@H](O)C[C@H]2[C@H](O)/C=C/C(=O)O1` [Brefeldin A], for which the “Effect on conidial germination” value in assay [1] was “did not”. For the same compound, in assay [2], the “Effect on mycelial growth in T. rubrum” value is listed as “did not”.

Turning to NAV2729, the “Effect on conidial germination” value in assay [1] is on record as “did not”. Besides, the “Effect on mycelial growth in T. rubrum” value in assay [2] is “did not”.

Consider `OCCNC1CCCc2c1[nH]c1ccc(-c3ccccc3)cc21` (centres unmarked) [CASIN], for which the IC50 in assay [3] is 192 µM; in assay [4] it was 518 µM; in assay [1], 20 µM.

With `Cc1cc(/C=c2/sc3nc4ccccc4n3c2=O)c(C)n1-c1ccccc1` [ITX3], the IC50 in assay [3], in assay [4] and in assay [1] was more than 50 µM throughout.

In the case of `CCN(CC)CCCC(C)Nc1nc(C)cc(Nc2ccc3nc(C)cc(N)c3c2)n1` (centres unmarked) [NSC23766], the values for the IC50 in assay [3], in assay [4] and in assay [1] (Trichophyton rubrum) were 368 µM, 477 µM and 640 µM, respectively. For the same compound, in assay [1], the “Effect on conidial germination” value was “hindered”. Moreover, the “Effect on mycelial growth in T. rubrum” value in assay [2] was “hindered”.
